Data from publication PMC10388299, “Design, Synthesis, and Biological Evaluation of 2-Hydroxy-4-phenylthiophene-3-carbonitrile as PD-L1 Antagonist and Its Comparison to Available Small Molecular PD-L1 Inhibitors” (Journal of Medicinal Chemistry, 2023).
“Also recorded” adds a separate entry of the source. Counter-ions that a name gives are not always drawn. Like-named read-outs stand apart in the source and are kept apart here. Each block holds one molecule with its values, some of them ahead of it.

Experiments:
PD-1/PD-L1 complex = target: T1, PD-1/PD-L1 complex (Homo sapiens, UniProt Q9NZQ7); test: HTRF PD-1/PD-L1 assay (Cisbio Human PD1/PD-L1 biochemical binding assay); conditions: disruption of the PD-1/PD-L1 complex; two independent dilution series
T1 construct: purchased Cisbio Bioassays
T1 sequence (Q9NZQ7 19-238 limits assumed, one chain of several): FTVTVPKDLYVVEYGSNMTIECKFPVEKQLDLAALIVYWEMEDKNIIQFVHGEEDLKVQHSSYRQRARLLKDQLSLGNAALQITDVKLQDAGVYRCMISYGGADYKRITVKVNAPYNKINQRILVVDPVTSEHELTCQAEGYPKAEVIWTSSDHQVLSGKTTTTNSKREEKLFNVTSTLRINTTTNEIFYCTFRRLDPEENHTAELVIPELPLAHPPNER
Method: Presence of inhibitors (small molecules, proteins, and so forth) that disrupt the binding decreases the resulting signal allowing the assessment of the inhibitory activity of tested inhibitors via IC50 (the half maximal inhibitory concentration).
The HTRF assay was performed using the certified Cis-Bio assay kit at 20 μL final volume using their standard protocol as described by Musielak et al.[34] Measurements were performed on individual dilution series to determine the half maximal inhibitory concentration (IC50) of tested compounds. After mixing all components according to the Cis-Bio protocol, the plate was incubated for 2 h at RT. […] For the compounds with IC50 values that were too high due to, e.g., solubility issues, a “dissociation value” at the concentration of 50 μM is presented for the sake of comparability to other inhibitors.

[1] = Experimental lipophilicity of 18F tracers; format: physicochemical; conditions: for logP / lipophilicity (in words): 18F tracer; for logP / logD: triplicate; for logP: read-out: experimental log P; for logD: pH 7.4, 18F tracer, read-out: experimental log D7.4
[2] = In vitro stability in formulation solution; format: physicochemical; conditions: for stability in formulation solution (4h): supplementary csv, unit not given; for stability in formulation solution after 4 h: radiochemical purity by TLC, triplicate
Method: (§1) In vitro stability of [^18F]4a and [^18F]9a was evaluated in Tween-80 or PBS (original diluent) and serum. After purification, samples of tracers were mixed with equal volumes of the formulated tracer and solution in which stability was evaluated (100 μL tracer solution with 100 μL Tween-80/PBS) and measured every 30 min for a 4 h period. The radiochemical purity (RCP) of labeled products was measured using thin-layer chromatography (TLC) (silica TLC plates on aluminum, MerckMilipore, USA). The TLCs were developed with appropriate MeOH/DCM eluent system; 10% MeOH/DCM + NH3 for [^18F]4a and 10% MeOH/DCM for [^18F]9a. The distribution of the radioactivity among the TLC plate was measured on GE Amersham Typhoon Scanner using phosphorus plates and ImageQuant TL 1D software for data processing (both GE Healthcare Life Science, USA). The experiment was performed in triplicate.

PD-L1 [3] = target: T2, PD-L1 (Homo sapiens, UniProt Q9NZQ7); test: NMR binding assay (1H and 1H-15N HMQC); conditions: molar ratio 1:1
T2 construct: The PD-L1 protein (18–134) was expressed in the Escherichia coli BL21 (DE3); made in house; host or cells: Escherichia coli BL21 (DE3)
T2 sequence (Q9NZQ7 18-134): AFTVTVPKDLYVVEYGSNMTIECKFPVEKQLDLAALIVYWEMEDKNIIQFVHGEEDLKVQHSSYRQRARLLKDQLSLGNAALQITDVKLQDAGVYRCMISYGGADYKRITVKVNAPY
Text: To investigate if our synthesized analogs are capable of disrupting PD-1/PD-L1 binding, we performed our previously described nuclear magnetic resonance (NMR) assay.[16] […] The PD-L1 dimerization causes peaks of the ^1H aliphatic part PD-L1 spectrum to flatten (peak at −0.4 ppm) or disappear in the case of peaks from ^1H–^15N HMQC spectrum. Dimerization of PD-L1, in turn, prevents its binding to the PD-1.
For NMR measurements, the buffer was exchanged by gel filtration to PBS pH 7.4. 10% (v/v) of D2O was added to the samples to provide the lock signal. All spectra were recorded at 300 K using a Bruker Avance III 600 MHz spectrometer equipped with the nitrogen cryo-probe head.
Determination of binding of compounds to PD-L1 was carried out with the ^1H NMR. […] The molecular weight of each complex was estimated from relaxation time analysis, which can only be explained by the compound-induced PD-L1 dimerization. No significant changes were observed upon the addition of the PD-1 with the tested compounds.

[4] = In vitro stability in human serum; format: in vitro ADME; conditions: for stability in serum (4h): supplementary csv, unit not given; for stability in serum after 4 h: radiochemical purity by TLC, triplicate
Method: as §1

PD-1/PD-L1 = target: T3, PD-1/PD-L1 (Homo sapiens, UniProt Q9NZQ7); test: Promega PD-1/PD-L1 immune checkpoint blockade assay (Jurkat reporter T cells + aAPCs); format: cell-based; conditions: Jurkat reporter T cells cocultured with aAPCs; an estimation because of cytotoxicity at higher concentrations
T3 construct: host or cells: CHO-K1 aAPCs (PD-L1) and Jurkat effector cells (PD-1)
T3 sequence (Q9NZQ7 19-290): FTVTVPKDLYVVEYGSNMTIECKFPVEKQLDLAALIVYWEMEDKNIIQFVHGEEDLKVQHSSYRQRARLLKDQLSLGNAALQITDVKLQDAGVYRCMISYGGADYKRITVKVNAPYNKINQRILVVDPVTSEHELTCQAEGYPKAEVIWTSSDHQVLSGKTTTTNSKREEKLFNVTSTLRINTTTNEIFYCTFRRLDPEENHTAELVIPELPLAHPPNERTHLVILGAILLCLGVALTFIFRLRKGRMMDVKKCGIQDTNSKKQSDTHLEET
Method: Additionally, aAPCs and ECs were propagated in a constant presence of hygromycin B (50 μg/mL) and G418 (250 μg/mL) to provide a stable expression of the introduced genetic constructs.
The aAPCs were seeded in white flat bottom 96-well plates at the density of 10 000 cells/well in the culture medium 24 h before the assay and grown overnight in a 5% CO2 37 °C incubator. On the day of the experiment, serial dilutions of tested compounds were prepared first in DMSO and then formulated in RPMI 1640-containing 1% FBS to keep the constant DMSO concentration of 0.1% (v/v). As a negative control, DMSO was used in assay buffer at the concentration of 0.1% (v/v). As a positive control, a serial dilution of durvalumab (an anti-PD-L1 antibody) in assay buffer was used. Meanwhile, the medium of the aAPCs cells was removed, and the compounds’ dilutions were added to the plate (40 μL/well). […] The cell suspension was distributed over the inner 60 wells of the assay plate (20 000 cells/well, 40 μL). The plates were incubated for 6 h in a 5% CO2 incubator at 37 °C. Once the assay time was over, the plate was taken out of the incubator to equilibrate to room temperature. Before measurements, a 75 μL per well of Bio-Glo luciferase substrate was added to the inner 60 wells of the plate. […] The measurement was done on a Spark microplate reader (Tecan), using the standard settings for luminescence reading.

PD-L1 [5] = target: T2, PD-L1; test: Microscale thermophoresis (MST) affinity assay; format: binding
Method: The PD-L1 protein (18–134) was expressed in the Escherichia coli BL21 (DE3) and purified as described previously (Zak et al., 2016).[8] Protein expression was induced with 1 mM isopropyl β-D-1-thiogalactopyranosid (IPTG) at OD600 of 0.8 and the cells were cultured overnight at 37 °C. Afterward protein was refolded by drop-wise dilution into solution containing 0.1 M Tris pH 8.0, 1 M L-arginine hydrochloride, 0.25 mM oxidized glutathione, and 0.25 mM reduced glutathione. After refolding, protein was dialyzed 3 times against buffer containing 10 mM Tris pH 8.0 and 20 mM NaCl. Finally, PD-L1 was purified by SEC (size-exclusion chromatography) on HiLoad 26/600 Superdex 75 column (GE Healthcare) equilibrated with PBS pH 7.4.
PD-L1 was expressed as for NMR experiment. It was diluted to 10 μM and labelled with Protein Labeling Kit RED-NHS 2nd Generation from Nanotemper according to the manufacturer’s guidelines. The degree of labelling for PD-L1 was 0.74, which is with agreement with the protocol. Labelled PD-L1 at 100 nM concentration was then mixed with independent series of 4a and 9a compound dilution series (n = 4) and incubated for 30 min at RT. Next, samples were transferred to dedicated 384-well plate and measured on Diantus equipped with pico detector using auto-excitation and 5 s pulse (Nanotemper) for the affinity measurements. The results were exported, averaged, and fitted in Mathematica 12 using following equations: [drawing 1] where: FB—fraction bound, [A]—concentration of unlabeled titrated partner, [B]—concentration of fluorescent labeled partner that is fixed, [AB]—concentration of bound complex of A and B, Kd—equilibrium dissociation constant.

PD-L1 [6] = conditions: PD-L1 nanobody, ca. 15 kDa; cited from earlier work
PD-L1 [7] = target: T2, PD-L1; parameters: method as in PMID 17985865; conditions: by means of NMR, HTRF, and cellular assays; cited from earlier work
murine PD-L1 = system: murine PD-L1; parameters: method as in PMID 17985865; conditions: by means of NMR, HTRF, and cellular assays; cited from earlier work
[8] = system: H358 (lung adenocarcinoma) PD-L1^+/– tumor tissue sections; test: Autoradiography with H358 PD-L1+/- tumor tissue sections; format: binding, human; conditions: PD-L1+ vs counterpart H358 tumor sections
Method: (§2) Formalin-fixed paraffin-embedded xenograft tumors (ES2 PD-L1^+/– and H358 PD-L1^+/–) were cut into 4 μm slices and placed on the glass slides. Before each immunohistochemistry and autoradiography experiment, tissue slides were deparaffinized by oven incubation (min 1 h at 60 °C) and xylene washes, then rehydrated through graded alcohol and distilled water. Additionally, heat-induced antigen retrieval with 10 mM citrate buffer pH = 6.0 was performed (15 min 400 W). Snap-frozen human tonsil tissue was a gift from the Pathology Department (UMCG). Before each experiment, they were incubated in cold acetone for 10 min.
(§3) For autoradiography, antigen retrieval and acetone wash were followed by 30 min of incubation with a freshly formulated tracer at a concentration of 0.2 MBq/mL. After washing twice with cold PBS and once with water, slides were left to dry and exposed to phosphorus plates. The image was recorded on GE Amersham Typhoon Biomolecular Imager and analyzed with ImageQuant TL 1D software (both GE Healthcare Life Science, USA).

[9] = system: ES2 (ovarian carcinoma) PD-L1^+/– tumor tissue sections; test: Autoradiography with ES2 PD-L1+/- tumor tissue sections; format: binding, human
Method: as §2, §3

[10] = MST, labelled PD-L1 100 nM, n = 4, read-out: kD to hPD-L1
[11] = supplementary csv, unit inferred, read-out: MST Kd

IC50 (PD-1/PD-L1 complex): 4.97 nM | logP [1]: 3.6 | logD [1]: 3.9 | stability in formulation solution (4h) [2]: 97.5 | effect on PD-L1 in 1H NMR and 1H-15N HMQC spectra (PD-L1 [3]): induces dimerization of PD-L1 | stability in serum (4h) [4]: 93.9 | Kd (PD-L1 [5]; [10]): ~27 nM | Kd (PD-L1 [5]; [11]): 26.9 nM
Molecule: N#Cc1c(-c2ccc(F)cc2)csc1OCc1ccc(CN)cc1 [4a, 2-((4-(Aminomethyl)benzyl)oxy)-4-(4-fluorophenyl)thiophene-3-carbonitrile Hydrochloride]
EC50 (PD-1/PD-L1): 2700 nM

Molecule: KN035: PD-L1 nanobody, ca. 15 kDa
pKd (PD-L1 [6]): 8.5

effect on PD-L1 in 1H NMR and 1H-15N HMQC spectra (PD-L1 [3]): induces dimerization of PD-L1
Molecule: Cc1c(COc2cc(OCc3cccc(C#N)c3)c(CN3CC(O)C[C@@H]3C(=O)O)cc2Cl)cccc1-c1ccc2c(c1)OCCO2 (stereo in doubt) [9b, (2R,4S)-1-(5-Chloro-2-((3-cyanobenzyl)oxy)-4-((3-(2,3-dihydrobenzo[b][1,4]dioxin-6-yl)-2-methylbenzyl)oxy)benzyl)-4-hydroxypyrrolidine-2-carboxylic Acid, reference compound]

Molecule: C[C@@H](O)[C@H](NC(=O)N[C@@H](CC(N)=O)c1nc([C@@H](N)CO)no1)C(=O)O [CA-170]
direct binding to human PD-L1 (PD-L1 [7]): not a direct binder | direct binding to murine PD-L1 (murine PD-L1): not a direct binder

lipophilicity (in words) [1]: high lipophilicity | logP [1]: 5.2 ± 0.6 | logD [1]: 6.5 ± 0.2 | stability in formulation solution after 4 h [2]: 97.3 ± 1.1% | stability in serum after 4 h [4]: 88.7 ± 5.7% | stability in human serum, minimal value [4]: 82%
Molecule: Cc1c(COc2cc(OCc3cccc(C#N)c3)c(CN3C[C@@H]([18F])C[C@@H]3C(=O)O)cc2Cl)cccc1-c1ccc2c(c1)OCCO2 [[^18F]9a]
higher uptake in PD-L1+ H358 tumors [8]: 40–55%

IC50 (PD-1/PD-L1 complex): 2.01 nM | logP [1]: 5.2 | logD [1]: 6.5 | stability in formulation solution (4h) [2]: 97.3 | stability in serum (4h) [4]: 88.7 | Kd (PD-L1 [5]; [10]): ~8 nM | Kd (PD-L1 [5]; [11]): 8.36 nM
Molecule: Cc1c(COc2cc(OCc3cccc(C#N)c3)c(CN3C[C@@H](F)C[C@@H]3C(=O)O)cc2Cl)cccc1-c1ccc2c(c1)OCCO2 [9a, (2R,4S)-1-(5-Chloro-2-((3-cyanobenzyl)oxy)-4-((3-(2,3-dihydrobenzo[b][1,4]dioxin-6-yl)-2-methylbenzyl)oxy)benzyl)-4-fluoropyrrolidine-2-carboxylic Acid]
EC50 (PD-1/PD-L1): 880 nM

lipophilicity (in words) [1]: moderate lipophilicity | logP [1]: 3.6 ± 0.4 | logD [1]: 3.9 ± 0.9 | stability in formulation solution after 4 h [2]: 97.5 ± 0.5% | stability in serum after 4 h [4]: 93.9 ± 0.5% | stability in human serum, minimal value [4]: 93%
Molecule: N#Cc1c(-c2ccc([18F])cc2)csc1OCc1ccc(CN)cc1 [[^18F]4a]
higher uptake in PD-L1+ H358 tumors [8]: 40–55% | background uptake ([9]; compared with [^18F]9a): lower background uptake than [^18F]9a | discrimination between wild-type and knock-out ES2 slides ([9]; paraffin-embedded sections): failed to discriminate between wild-type and knock-out; also recorded: unable to bind specifically
